In patent US8383581B2, “Short-chain peptides as parathyroid hormone (PTH) receptor agonist” (Cadila Healthcare Limited, priority 2009, dated 2013):
Where a SMILES comes first, the peptide text is derived from it. [ ]: non-standard residue; d: D form. ξ: configuration not given here. ξBip(2'-Et-4'-OMe) = CCc1cc(OC)ccc1-c1ccc(CC(N)C(=O)O)cc1; Arg(NO2) = N=C(NCCC[C@H](N)C(=O)O)N[N+](=O)[O-]; ξαMePhe(2,6-F2) = CC(N)(Cc1c(F)cccc1F)C(=O)O; ξαMe(hhPhe) = CC(N)(CCCc1ccccc1)C(=O)O; ξαMePhe(2-F) = CC(N)(Cc1ccccc1F)C(=O)O; hhPhe = N[C@@H](CCCc1ccccc1)C(=O)O; hArg = N=C(N)NCCCC[C@H](N)C(=O)O; hCit = NC(=O)NCCCC[C@H](N)C(=O)O; Cit = NC(=O)NCCC[C@H](N)C(=O)O; ξαMeV = CC(C)C(C)(N)C(=O)O; Nle = CCCC[C@H](N)C(=O)O; Orn = NCCC[C@H](N)C(=O)O; Ac5c = NC1(C(=O)O)CCCC1; Aib = CC(C)(N)C(=O)O

Experiments:
Format in all cases: in vitro ADME
[1] = Stability of peptides in human liver microsomes; conditions: human, microsomes; for % degradation of peptides in 24 h when incubated with liver microsomes: 2 μM, pH 7.8
Experimental: (§1) b) Stability of Peptides in Human Plasma, Simulated Gastric Fluid, Intestinal Fluid and Liver Microsomes (Ex-Vivo): Different short-chain peptides (final concentration 2 μM) were incubated with either pooled human plasma (7.5 μL) or simulated gastric fluid (pH 1.5; composition HCl, NaCl and Pepsin) or simulated intestinal fluid (pH 7.5) or human liver microsomes, for 0, 2, 4, 6, 12 and 24 h (37° C.; 50 mM triethanolamine-HCl buffer; pH 7.8). Concentrations of human plasma/simulated gastric fluid/simulated intestinal fluid/human liver microsomes were selected in preliminary experiments to provide degradation of approximately 50% of PTH(1-34) within 1 h, therefore allowing time-dependent degradation to be viewed over 24 h. Reactions were terminated by the addition of TFA/H2O ([…], 10% (v/v)). The reaction products were then applied to a Vydac C18 analytical column (4.6×250-mm) and the major degradation fragment separated from intact short-chain peptides. The column was equilibrated with TFA/H20, at a flow rate of 1 mL/min. Using 0.1% (v/v) TFA in 70% acetonitrile/H2O, the concentration of acetonitrile in the eluting solvent was raised from 0% to 28% over 10 min and from 28% to 42% over 30 min. The absorbance was monitored at 206 nm using UV detector and peaks were collected manually prior to ESI-MS analysis. Area under the curve was measured for test peptides and their metabolites and percentage degradation were calculated at each time point over a period of 24 h. Stability study results of selected peptides, in human plasma, simulated gastric fluid, intestinal fluid and liver microsomes (in vitro) are listed in Table 4.

[2] = Stability of peptides in simulated gastric fluid (pH 1.5; HCl, NaCl and Pepsin); conditions: pH 1.5; for % degradation of peptides in 24 h when incubated with simulated gastric fluid: 2 μM; for half-life / half-life (t1/2) in simulated gastric fluid: simulated gi fluid
Experimental: as §1

[3] = Stability of peptides in human plasma; conditions: human, plasma; for metabolised at 24 h, 2 μM: pH 7.8
Experimental: as §1

[4] = Stability of peptides in simulated intestinal fluid (pH 7.5); conditions: pH 7.5; for half-life / half-life (t1/2) in simulated intestinal fluid: simulated gi fluid; for % degradation of peptides in 24 h when incubated with simulated intestinal fluid: 2 μM
Experimental: as §1

half-life (t1/2) in liver microsomes [1] | % degradation of peptides in 24 h when incubated with liver microsomes [1] | % degradation of peptides in 24 h when incubated with simulated gastric fluid [2] | half-life [2] | half-life [3] | metabolised at 24 h, 2 μM [3] | half-life [4] | % degradation of peptides in 24 h when incubated with simulated intestinal fluid [4] | half-life [1] | half-life (t1/2) in simulated gastric fluid [2] | half-life (t1/2) in simulated intestinal fluid [4] | half-life (t1/2) in human plasma [3] | Compound
(5) h | 35% | 00% | > 24 h | > 24 h | 0% | > 24 h | 00% | – | – | – | – | CCCC[C@H](NC(=O)C(C)(Cc1c(F)cccc1F)NC(=O)[C@H](CCC(N)=O)NC(=O)[C@@H](NC(=O)[C@H](CCC(=O)O)NC(=O)C(C)(C)NC(=O)[C@@H](NC(=O)C(C)(C)N)C(C)C)[C@@H](C)CC)C(=O)N[C@@H](Cc1c[nH]cn1)C(=O)N[C@@H](CCC(N)=O)C(=O)NC(C)(C)C(=O)NC(C)(C)C(=O)N[C@@H](CCCNC(=N)N[N+](=O)[O-])C(=O)NC(C)(Cc1ccccc1F)C(N)=O (some centres unmarked) [Seq. ID. 590] (H-[Aib]V[Aib]EIQ[ξαMePhe(2,6-F2)][Nle]HQ[Aib][Aib][Arg(NO2)][ξαMePhe(2-F)]-NH2)
– | 77% | 15% | – | 8 h | 70% | – | 41% | 1 h | (8) h | (6) h | – | CCc1cc(OC)ccc1-c1ccc(CC(NC(=O)[C@H](CCCCN)NC(=O)[C@H](C)NC(=O)[C@H](CCCCNC(=N)N)NC(=O)[C@H](CCC(N)=O)NC(=O)[C@H](Cc2c[nH]cn2)NC(=O)[C@H](CCSC)NC(=O)[C@H](CC(C)C)NC(=O)[C@H](CCC(N)=O)NC(=O)[C@@H](NC(=O)[C@H](CCC(=O)O)NC(=O)C(C)(C)NC(=O)[C@@H](NC(=O)C2(N)CCCC2)C(C)C)[C@@H](C)CC)C(N)=O)cc1 (some centres unmarked) [Seq. ID. 650] (H-[Ac5c]V[Aib]EIQLMHQ[hArg]AK[ξBip(2'-Et-4'-OMe)]-NH2)
– | 80% | 14% | – | 8 h | 78% | – | 43% | 1 h | (8) h | (6) h | – | CCCC[C@H](NC(=O)C(C)(Cc1ccccc1F)NC(=O)[C@H](CCC(N)=O)NC(=O)[C@@H](NC(=O)[C@H](CCC(=O)O)NC(=O)C(C)(C)NC(=O)[C@@H](NC(=O)C1(N)CCCC1)C(C)C)[C@@H](C)CC)C(=O)N[C@@H](Cc1c[nH]cn1)C(=O)N[C@@H](CCC(N)=O)C(=O)N[C@@H](CCCCNC(=N)N)C(=O)NC(C)(C)C(=O)N[C@@H](CCCNC(=N)N[N+](=O)[O-])C(=O)NC(C)(Cc1ccccc1F)C(N)=O (some centres unmarked) [Seq. ID. 250] (H-[Ac5c]V[Aib]EIQ[ξαMePhe(2-F)][Nle]HQ[hArg][Aib][Arg(NO2)][ξαMePhe(2-F)]-NH2)
– | 84% | 43% | 4 h | > 23 h | 1% | > 22 h | 05% | 2 h | – | – | – | CCCC[C@H](NC(=O)C(C)(Cc1c(F)cccc1F)NC(=O)[C@H](CCC(N)=O)NC(=O)[C@@H](NC(=O)[C@H](CCC(=O)O)NC(=O)C(C)(C)NC(=O)[C@@H](NC(=O)C1(N)CCCC1)C(C)C)[C@@H](C)CC)C(=O)N[C@@H](Cc1c[nH]cn1)C(=O)N[C@@H](CCC(N)=O)C(=O)N[C@@H](CCCN)C(=O)N[C@@H](C)C(=O)N[C@@H](CCCNC(N)=O)C(=O)NC(Cc1ccc(-c2ccc(OC)cc2CC)cc1)C(=O)N[C@@H](CCCc1ccccc1)C(N)=O (some centres unmarked) [Seq. ID. 829] (H-[Ac5c]V[Aib]EIQ[ξαMePhe(2,6-F2)][Nle]HQ[Orn]A[Cit][ξBip(2'-Et-4'-OMe)][hhPhe]-NH2)
– | 100% | 100% | 0.5 h | – | 78% | 0.5 h | 100% | 0.5 h | – | – | (9) h | CCc1cc(OC)ccc1-c1ccc(CC(NC(=O)[C@H](CCCCNC(=N)N)NC(=O)[C@H](C)NC(=O)[C@H](CCCCNC(=N)N)NC(=O)[C@H](CCC(N)=O)NC(=O)[C@H](Cc2c[nH]cn2)NC(=O)[C@H](CCSC)NC(=O)[C@H](CC(C)C)NC(=O)[C@H](CCC(N)=O)NC(=O)[C@@H](NC(=O)[C@H](CCC(=O)O)NC(=O)C(C)(C)NC(=O)[C@@H](NC(=O)C2(NC(=O)C(C)(N)C(C)C)CCCC2)C(C)C)[C@@H](C)CC)C(=O)NC(C)(CCCc2ccccc2)C(N)=O)cc1 (some centres unmarked) [Seq. ID. 906] (H-[ξαMeV][Ac5c]V[Aib]EIQLMHQ[hArg]A[hArg][ξBip(2'-Et-4'-OMe)][ξαMe(hhPhe)]-NH2)
– | 79% | 12% | – | 8 h | 78% | – | 55% | 1 h | (8) h | (6) h | – | CCCC[C@H](NC(=O)C(C)(Cc1c(F)cccc1F)NC(=O)[C@H](CCC(N)=O)NC(=O)[C@@H](NC(=O)[C@H](CCC(=O)O)NC(=O)C1(NC(=O)[C@@H](NC(=O)C2(N)CCCC2)C(C)C)CCCC1)[C@@H](C)CC)C(=O)N[C@@H](Cc1c[nH]cn1)C(=O)N[C@@H](CCC(N)=O)C(=O)N[C@@H](CCCCNC(=N)N)C(=O)N[C@@H](C)C(=O)N[C@@H](CCCCN)C(=O)NC(C)(Cc1c(F)cccc1F)C(N)=O (some centres unmarked) [Seq. ID. 115] (H-[Ac5c]V[Ac5c]EIQ[ξαMePhe(2,6-F2)][Nle]HQ[hArg]AK[ξαMePhe(2,6-F2)]-NH2)
– | 84% | 43% | 4 h | > 24 h | 0% | > 24 h | 00% | 2 h | – | – | – | CCCC[C@H](NC(=O)C(C)(Cc1c(F)cccc1F)NC(=O)[C@H](CCC(N)=O)NC(=O)[C@@H](NC(=O)[C@H](CCC(=O)O)NC(=O)C(C)(C)NC(=O)[C@@H](NC(=O)C1(N)CCCC1)C(C)C)[C@@H](C)CC)C(=O)N[C@@H](Cc1c[nH]cn1)C(=O)N[C@@H](CCC(N)=O)C(=O)N[C@@H](CCCCNC(N)=O)C(=O)NC(C)(C)C(=O)NC(C)(C)C(=O)NC(C)(Cc1c(F)cccc1F)C(N)=O (some centres unmarked) [Seq. ID. 440] (H-[Ac5c]V[Aib]EIQ[ξαMePhe(2,6-F2)][Nle]HQ[hCit][Aib][Aib][ξαMePhe(2,6-F2)]-NH2)
